# Data from patent US9636324B2, “Use of 15-benzylidence-14-deoxy-11, 12 -dehyroandrographolide derivative in manufacture of medicaments for protecting liver and anti-hepatitis C virus” (Zhengzhou University, priority 2012, dated 2017).
# Legend:
# [1] = test system: mice with ConA induced liver damage; assay: ConA induced immunological liver damage model in mice; assay type: in vivo, Kunming mice; details: for enzyme (ALT, AST) lowering effect compared to AD group: high dosage 0.88 mmol/kg vs AD 0.88 mmol/kg; for ability against liver lipid peroxidation compared with AD group: P<0.01 (B, C), P<0.05 (D); for protective effect against liver damage induced by ConA (summary): mice, intragastric, 3 days
# Protocol: Kunming mice of clean grade (male, weight 20±2 g, supplied by the Laboratory Animal Center, Henan Province) are randomly divided into groups with 6 mice in each group. Bifendate (Xinchang Pharmaceutical Factory of Zhejiang Pharmaceutical Co., Ltd, 200 mg/kg) is used as positive control, andrographolide (AD) is provided by Furen Pharmaceutical Group Co., Ltd, and the test compounds are synthesized by the inventors with purities higher than 99.0%. Normal control group and model group are intragastrically given 0.5% sodium carboxymethylcellulose (CMC-Na), and test groups are given 0.5% CMC-Na suspensions with AD (0.88 mmol/kg), and low dosage (0.66 mmol/kg) and high dosage (0.88 mmol/kg) of compound A, B and C, respectively. The drugs are given for 3 days. One hour after the last administration, all mice except those in the normal control group are injected with a single dose of ConA (20 mg/kg) through the caudal vein. After 8 h, the eyeball is enucleated to collect blood, which is centrifuged at 3000 rpm for 15 min to separate serum. ALT and AST are tested according to the kit specification, respectively (Nanjing Jiancheng Bioengineering Institute). The left lobe of liver is taken to prepare 10% homogenate using physiological saline, MDA is determined according to the kit specification (Nanjing Jiancheng Bioengineering Institute). To 50 μL liver homogenate is added 2 mL of 0.5 mol/L KOH-methanol solution and kept at 50° C. water bath to isomerize for 20 minutes, then absorbance (A value) is measured at 278 nm, using the A value per mL of homogenate to represent the PGE2 content. Experimental data are expressed as average±standard deviation (X±s), analyzed with SPSS 11.5 statistic software, with P<0.05 meaning significant difference.
# Kunming mice of clean grade (male, weight 20±2 g) are randomly divided into normal group, model group, bifendate (Zhejiang Wanbang Pharmaceutical Co., Ltd) positive control group (200 mg/kg), AD group (0.88 mmol/kg), low dosage group (0.66 mmol/kg) and high dosage (0.88 mmol/kg) group of compound D. ALT, AST, and MDA assay kits are purchased from Nanjing Jiancheng Bioengineering Institute. Other agents, drugs and experimental methods are the same as in EXAMPLE 1.
# In experimental investigation of both models, the following grouping method is used: Kunming mice of clean grade (male, weight 20±2 g) are randomly divided into normal group, model group, bifendate group (200 mg/kg), AD group (0.88 mmol/kg), low dosage group (0.66 mmol/kg) and high dosage group (0.88 mmol/kg) of compound E, with 8 mice in each group. Other agents, drugs and experimental methods are the same as in EXAMPLE 1 and in EXAMPLE 4, respectively.
# [2] = test system: mice with carbon tetrachloride induced liver damage; assay: Carbon tetrachloride induced chemical liver damage model in mice; assay type: in vivo, Kunming mice; details: for ALT activity in serum vs model group / AST activity in serum vs model group: dosage groups not distinguished (0.66 and 0.88 mmol/kg); for ALT activity in serum vs model group / AST activity in serum vs model group / MDA level in liver homogenate vs model group / PGE2 level in liver homogenate vs model group: P<0.01; for MDA level in liver homogenate vs model group / PGE2 level in liver homogenate vs model group: dosage groups not distinguished; for magnitude of decrease in ALT activity compared to AD group / magnitude of decrease in AST activity compared to AD group / PGE2 content compared to AD group / ability to reduce lipid peroxide level in liver homogenate compared to AD group: P<0.05; for protective effect against liver damage induced by carbon tetrachloride (summary): mice, intragastric, 3 days
# Protocol: Kunming mice of clean grade (male, weight 20±2 g), after adaptively fed for 3 days, are randomly divided into normal group, model group, bifendate positive control group (200 mg/kg), AD group (0.88 mmol/kg), low dosage group (0.66 mmol/kg) and high dosage group (0.88 mmol/kg) of compound A, B, C and D, with 8 mice in each group. Positive group and each test group are intragastrically given with respective suspension prepared with 0.5% CMC-Na, and normal group and model group are given with 0.5% CMC-Na. The drugs are given for 3 days, and 1 h after the last administration, all mice except those in the normal group are intraperitoneally injected with a single dose of 0.3% carbon tetrachloride in peanut oil (0.1 mL/10 g). After 16 h, the eyeball of the mice in each group is enucleated to collect blood, which is centrifuged at 3000 rpm for 15 min to separate serum. ALT and AST activities are tested respectively (Nanjing Jiancheng Bioengineering Institute). The left lobe of liver is taken to prepare 10% homogenate using physiological saline, MDA (Nanjing Jiancheng Bioengineering Institute) and PGE2 contents are determined. Experimental data are expressed as average±standard deviation (X±s), analyzed with SPSS 11.5 statistic software, with P<0.05 meaning there is a significant difference. Other agents, drugs and experimental methods are the same as in EXAMPLE 1. In experimental investigation of both models, the following grouping method is used: Kunming mice of clean grade (male, weight 20±2 g) are randomly divided into normal group, model group, bifendate group (200 mg/kg), AD group (0.88 mmol/kg), low dosage group (0.66 mmol/kg) and high dosage group (0.88 mmol/kg) of compound E, with 8 mice in each group. Other agents, drugs and experimental methods are the same as in EXAMPLE 1 and in EXAMPLE 4, respectively.
# [3] = test system: bovine viral diarrhea virus (BVDV-AV69); assay: CPE observation of effects on cytopathy caused by BVDV in MDBK cells; details: MDBK cells, BVDV-AV69; TC50 from MTT, IC50 from CPE
# Protocol: Pharmaceutical effects of drugs of the invention against cytopathy caused by inoculation of BVDV virus are investigated using MDBK (NBL-1) cells (purchased from Chinese Academy of Science's Shanghai Center for Type Culture Collection) and bovine viral diarrhea virus (BVDV-AV69) (purchased from China Institute of Veterinary Drugs Control). Ribavirin (R; Henan RunHong Pharmaceutical Co., Ltd; batch number: E0909604) is used as positive drug control. MDBK cells are prepared as a suspension (1×10^5/mL) in RPMI1640 culture medium which contains 10% in volume fetal bovine serum (Zhejiang Tianhang Biotechnology Co., Ltd; batch number: 100524), 100 μg/mL streptomycin (Shenzheng Huayao Nanfang Pharmaceutical Co., Ltd; batch number: N09081), 100 U/mL penicillin (North China Pharmaceutical Co., Ltd; batch number: E0909604), and are seeded in 96 well plates (Costar, US) at 200 μL/well, placed in an incubator (Binder, Germany) at 37° C. with 5% CO2 to culture the cell. In 24 h when cells grow into a single layer, virus solution of 100 TCID50 (TCID50=10^−2.5) is added and incubated for 1.5 h. Maintenance medium with the drug is added at 200 μL/well after 3×PBS washes.
# After digestion of MDBK cells with trypsin, cells with a concentration of 1×10^5/mL are seeded into 96 well plates at 200 μL/well, placed in an incubator at 37° C. with 5% CO2 for 24 h. After growing into a single layer, cells are attacked using 100 TCID50 (TCID50=10^−2.5) virus and incubated for 1.5 h. The virus-containing maintenance medium is discarded, and cells are washed with PBS, followed by addition of drug-containing maintenance medium with different concentrations, and incubation in 5% CO2 at 37° C. Normal cell control, virus control, drug treatment and ribavirin treatment groups are set. The cytopathy developing status is recorded everyday by observing under an inverted microscope.
# [4] = test system: mice with ethanol induced liver damage; assay: Ethanol induced liver damage model in mice; assay type: in vivo, Kunming mice
# Protocol: Kunming mice of clean grade (male, weight 20±2 g), after adaptively fed for 3 days, are randomly divided into normal group, model group, bifendate positive control group (200 mg/kg), AD group (0.88 mmol/kg), low (0.44 mmol/kg), median (0.66 mmol/kg) and high (0.88 mmol/kg) dosage groups of compound A, and median (0.66 mmol/kg) and high (0.88 mmol/kg) dosage groups of compound B, with 8 mice in each group. Positive group and each test group are intragastrically given with respective suspension prepared with 0.5% CMC-Na, and normal group and model group are given with 0.5% CMC-Na. The drugs are given for 3 days, and 1 h after the last administration, all mice except those in the normal group are intragastrically administrated with a single dose of 50% EtOH ([…]). After 16 h, the eyeball of the mice in each group is enucleated to collect blood, which is centrifuged at 3000 rpm for 15 min to separate serum. ALT and AST activities are tested respectively (Nanjing Jiancheng Bioengineering Institute). The left lobe of liver is taken to prepare 10% homogenate using physiological saline, MDA (Nanjing Jiancheng Bioengineering Institute) content is determined. Experimental data are expressed as average±standard deviation (X±s), analyzed with SPSS 11.5 statistic software, with P<0.05 meaning there is a significant difference. Other agents, drugs and experimental methods are the same as in EXAMPLE 1.
# [5] = high dosage 0.88 mmol/kg, P<0.01
# [6] = high dosage 0.88 mmol/kg vs AD 0.88 mmol/kg
# [7] = low dosage 0.66 mmol/kg vs AD 0.88 mmol/kg
# [8] = dosage groups not distinguished, P<0.01
Structure (SMILES),"enzyme (ALT, AST) lowering effect compared to AD group ([1]; P<0.05)","MDA content in liver homogenate vs model group [1, 5]","PGE2 content in liver homogenate vs model group [1, 5]",ability against liver lipid peroxidation compared with AD group ([1]; high dosage 0.88 mmol/kg),protective effect against liver damage induced by ConA (summary) [1],ALT activity in serum vs model group [2],AST activity in serum vs model group [2],MDA level in liver homogenate vs model group [2],PGE2 level in liver homogenate vs model group [2],"magnitude of decrease in ALT activity compared to AD group [2, 6]","magnitude of decrease in AST activity compared to AD group [2, 6]","magnitude of decrease in ALT activity compared to AD group [2, 7]","magnitude of decrease in AST activity compared to AD group [2, 7]",protective effect against liver damage induced by carbon tetrachloride (summary) [2],"TI value (therapy index, TC50/IC50) [3]",further results
C=C1CCC2C(C)(CO)C(O)CCC2(C)C1C=CC1=CC(=Cc2cccc(Br)c2)OC1=O (stereo not shown) [C],better enzyme lowering effect,more obvious effect,notably reduce PGE2 content,stronger resistant ability against liver lipid peroxidation,notably protective effect,notably suppress the increase,notably suppress the increase,effectively reduce,effectively reduce,significantly better,significantly better,significantly better,significantly better,protective effect,–,PGE2 content compared to AD group ([2]; high dosage 0.88 mmol/kg): notably lower; ability to reduce lipid peroxide level in liver homogenate compared to AD group ([2]; high dosage 0.88 mmol/kg): stronger ability to reduce the lipid peroxide level
"C=C1CC[C@@H]2[C@](C)(CO)[C@H](O)CC[C@@]2(C)[C@@H]1C/C=C1/C(=O)OC[C@H]1O [AD, andrographolide]",–,–,–,–,Obvious Protective Effect,–,–,–,–,–,–,–,–,Obvious Protective Effect,14.4,"MDA content in liver homogenate vs model group ([1]; AD 0.88 mmol/kg, compounds at different dosages, P<0.05): can reduce the MDA content; liver histopathologic section (HE staining) ([1]; HE stain, 200x, FIG. 5): liver cells are slightly swelled and loosed, a portion of liver cells show spotted necrosis and degeneration, no focal necrosis involving massive liver cells is observed"
"NC(=O)c1ncn([C@@H]2O[C@H](CO)[C@@H](O)[C@H]2O)n1 [Ribavirin(R), Ribavirin, reference compound]",–,–,–,–,–,–,–,–,–,–,–,–,–,–,4,–
C=C1CCC2C(C)(CO)C(O)CCC2(C)C1C=CC1=CC(=Cc2ccccc2)OC1=O (stereo not shown) [B],better enzyme lowering effect,more obvious effect,notably reduce PGE2 content,stronger resistant ability against liver lipid peroxidation,notably protective effect,notably suppress the increase,notably suppress the increase,effectively reduce,effectively reduce,significantly better,significantly better,significantly better,significantly better,protective effect,–,"ALT activity in serum vs model group [4, 8]: effectively suppress; AST activity in serum vs model group [4, 8]: effectively suppress; MDA content in liver homogenate vs model group [4, 8]: effectively reduce the MDA content; ALT activity decreasing magnitude compared with AD group ([4]; high dosage 0.88 mmol/kg, P<0.01 (A), P<0.05 (B)): notably larger; protective effect against liver damage induced by ethanol (summary) ([4]; mice, intragastric, 3 days): protective effect; PGE2 content compared to AD group ([2]; low dosage 0.66 mmol/kg): notably lower; ability to reduce lipid peroxide level in liver homogenate compared to AD group ([2]; low dosage 0.66 mmol/kg): stronger ability to reduce the lipid peroxide level"
